Experimental data reported in ChEMBL document CHEMBL1201862, “PubChem BioAssay data set” (2004).
The source made the active and inactive calls.

What was measured:
[1] = biological target: Nonstructural protein 1 (Influenza A virus, UniProt Q194T2); assay type: functional, Influenza A virus (A/California/07/2009(H1N1))
[2] = cytotoxicity in HEK-293T cells, dose response, cytotoxicity control for BCR NF-kB inhibitor project, luminescence, B-cell screen hits (AID 489021); assay type: functional, cell-based;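 note: HEK-293T cells carrying an NF-kB luciferase reporter; cells exposed to compound for about 14 hours before viability readout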
[3] = biological target: Genome polyprotein (dengue virus type 2, UniProt P29990); assay: Dengue-2 NS5 methyltransferase inhibitors, primary screen, biochemical, confirmation dose response (AID 588689); assay type: functional
[4] = biological target: T1, Short transient receptor potential channel 4 (Mus musculus, UniProt Q9QUQ5); assay: mouse TRPC4 channel inhibitors, dose response, cell-based, HEK293 TRPC4/mu-opioid, Fluo-4 calcium (AID 434942); assay type: functional;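 note: potency of inhibitors blocking the TRPC4 calcium response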
T1 sequence (Q9QUQ5 whole entry): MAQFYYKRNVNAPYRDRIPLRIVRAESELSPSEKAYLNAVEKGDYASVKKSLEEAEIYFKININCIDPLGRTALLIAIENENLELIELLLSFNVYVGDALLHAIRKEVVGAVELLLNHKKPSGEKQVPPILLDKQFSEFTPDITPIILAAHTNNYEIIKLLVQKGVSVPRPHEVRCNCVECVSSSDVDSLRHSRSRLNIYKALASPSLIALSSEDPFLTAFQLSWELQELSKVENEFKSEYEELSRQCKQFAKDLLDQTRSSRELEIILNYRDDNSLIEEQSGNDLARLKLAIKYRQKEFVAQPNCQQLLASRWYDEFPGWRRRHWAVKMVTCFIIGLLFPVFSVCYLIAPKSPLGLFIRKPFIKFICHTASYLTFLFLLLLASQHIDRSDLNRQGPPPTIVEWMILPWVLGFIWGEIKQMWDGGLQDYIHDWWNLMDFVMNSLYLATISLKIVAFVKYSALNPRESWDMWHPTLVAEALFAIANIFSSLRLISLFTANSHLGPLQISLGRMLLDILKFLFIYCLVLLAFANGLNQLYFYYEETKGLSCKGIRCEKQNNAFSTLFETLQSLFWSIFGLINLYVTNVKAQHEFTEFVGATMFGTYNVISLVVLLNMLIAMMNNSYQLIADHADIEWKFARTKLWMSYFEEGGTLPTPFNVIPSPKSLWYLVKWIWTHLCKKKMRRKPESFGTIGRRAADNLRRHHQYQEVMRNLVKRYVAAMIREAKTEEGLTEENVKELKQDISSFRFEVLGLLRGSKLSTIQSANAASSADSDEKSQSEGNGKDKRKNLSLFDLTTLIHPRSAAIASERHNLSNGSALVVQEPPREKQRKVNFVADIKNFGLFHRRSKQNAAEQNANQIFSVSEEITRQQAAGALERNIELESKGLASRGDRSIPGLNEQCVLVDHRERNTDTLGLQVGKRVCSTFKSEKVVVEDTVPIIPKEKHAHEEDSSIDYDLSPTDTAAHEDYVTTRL

[5] = cytotoxicity toward NIH3T3 fibroblasts, dose response, counter-screen, cell-based, ATP luminescence, mouse fibroblasts (AID 2010); assay type: functional;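 note: cells exposed to compound for about 90 hours before reading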
[6] = biological target: T2, DNA repair protein RAD52 homolog (Homo sapiens, UniProt P43351); assay type: functional, biochemical
T2 sequence (P43351 whole entry): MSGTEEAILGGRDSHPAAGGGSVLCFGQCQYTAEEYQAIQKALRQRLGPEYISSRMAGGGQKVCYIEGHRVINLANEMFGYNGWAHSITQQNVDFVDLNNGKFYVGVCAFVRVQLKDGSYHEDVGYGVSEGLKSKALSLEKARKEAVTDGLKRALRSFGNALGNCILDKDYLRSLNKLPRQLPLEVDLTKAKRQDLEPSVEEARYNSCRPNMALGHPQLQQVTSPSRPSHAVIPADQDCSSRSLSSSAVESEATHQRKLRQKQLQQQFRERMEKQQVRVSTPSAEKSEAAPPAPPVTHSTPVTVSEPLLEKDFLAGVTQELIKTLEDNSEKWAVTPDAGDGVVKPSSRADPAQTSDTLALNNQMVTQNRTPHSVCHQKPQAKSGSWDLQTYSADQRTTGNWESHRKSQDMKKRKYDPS

[7] = inhibitors of intracellular T. cruzi replication, confirmation, NIH3T3 host cells, beta-gal luminescence (AID 2044); assay type: functional, cell-based;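 note: intracellular parasites grown in NIH/3T3 mouse fibroblasts as host cells; luminescent beta-galactosidase reporter signal from transgenic T. cruzi replicating inside host cells; inhibitors lower the luminescence signal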
[8] = biological target: T3, Rac GTPase-activating protein 1 (Homo sapiens, UniProt Q9H0H5); assay: MgcRacGAP GTPase-activating activity inhibitors, confirmation, biochemical, ADP Hunter fluorescence, primary and confirmatory (AID 624330); assay type: functional
T3 sequence (Q9H0H5 whole entry): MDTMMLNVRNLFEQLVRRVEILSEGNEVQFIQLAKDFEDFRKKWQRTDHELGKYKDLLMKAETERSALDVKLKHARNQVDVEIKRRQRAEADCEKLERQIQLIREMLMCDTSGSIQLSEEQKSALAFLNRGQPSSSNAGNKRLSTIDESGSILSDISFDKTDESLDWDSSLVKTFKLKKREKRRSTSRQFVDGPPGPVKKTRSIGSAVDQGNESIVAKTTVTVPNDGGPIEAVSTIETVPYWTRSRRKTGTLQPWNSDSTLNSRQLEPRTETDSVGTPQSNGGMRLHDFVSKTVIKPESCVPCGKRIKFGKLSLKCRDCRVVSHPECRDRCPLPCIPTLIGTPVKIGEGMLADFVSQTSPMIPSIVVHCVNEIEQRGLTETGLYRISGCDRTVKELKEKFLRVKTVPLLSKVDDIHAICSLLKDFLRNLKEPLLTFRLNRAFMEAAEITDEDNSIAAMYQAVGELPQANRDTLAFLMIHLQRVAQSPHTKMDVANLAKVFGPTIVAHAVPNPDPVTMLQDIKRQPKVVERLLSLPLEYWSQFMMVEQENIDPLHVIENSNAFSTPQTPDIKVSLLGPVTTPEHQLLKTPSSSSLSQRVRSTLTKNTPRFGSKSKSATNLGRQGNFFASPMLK

[9] = A549 cell cytotoxicity, dose response, cytotoxicity control, plate reader, cherry-pick, antagonist series (AID 743412); assay type: functional, cell-based
[10] = HEK293 cell cytotoxicity, dose response, cytotoxicity control, plate reader, cherry-picked samples (AID 743446); assay type: functional, cell-based
[11] = HepG2 cell cytotoxicity, dose response, cytotoxicity control, plate reader, cherry-pick, antagonist series (AID 743416); assay type: functional, cell-based
[12] = system: HEK293; assay: NOD2 signaling inhibitors in MDP-stimulated cells, cell-based, uHTS, luminescence (AID 2001); assay type: functional; conditions: Homo sapiens
[13] = system: HEK293; assay: cells; assay type: functional, cell-based; conditions: Homo sapiens
[14] = system: HEK293; assay: cells; assay type: functional, cell-based; conditions: Homo sapiens; remark: listed apart in the source
[15] = system: HEK293; assay: NOD1 signaling inhibitors, primary screen, cell-based, luminescence, uHTS (AID 1578); assay type: functional; conditions: Homo sapiens
[16] = Luminescence Cell-Based Dose Retest to Confirm Inhibitors of Cancer Stem Cells. [Related pubchem assays (depositor defined):AID2717, AID2721]; assay type: functional; conditions: Homo sapiens
[17] = system: HEK293; assay: inhibitors of LMP1-driven NF-kB reporter, dose response, cell-based, HEK293, luciferase, cherry-pick (AID 588343); assay type: functional; conditions: Homo sapiens
[18] = LGR2 antagonists, dose response, cell-based, HEK293, CRE-luciferase reporter, cherry pick, set 2 (AID 743343); assay type: functional;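 note: transfected cells were stimulated with diluted bursicon conditioned medium after compound addition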
[19] = MC4R antagonists, dose response, counter-screen for LGR2 antagonist project, cell-based, plate reader, cherry pick (AID 743444); assay type: functional;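 note: transfected HEK 293 cells stimulated with alpha-MSH peptide; potency of inhibitors of the alpha-MSH evoked signal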

Chain of Nonstructural protein 1 (Q194T2 whole entry): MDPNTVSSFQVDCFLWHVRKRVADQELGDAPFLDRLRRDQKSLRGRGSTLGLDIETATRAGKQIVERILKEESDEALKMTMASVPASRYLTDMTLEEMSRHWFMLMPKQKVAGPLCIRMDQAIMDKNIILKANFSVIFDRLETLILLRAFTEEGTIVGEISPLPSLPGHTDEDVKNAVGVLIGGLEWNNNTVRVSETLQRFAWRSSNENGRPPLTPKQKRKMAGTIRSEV
Chain of Genome polyprotein (P29990 2492-3391 limits assumed): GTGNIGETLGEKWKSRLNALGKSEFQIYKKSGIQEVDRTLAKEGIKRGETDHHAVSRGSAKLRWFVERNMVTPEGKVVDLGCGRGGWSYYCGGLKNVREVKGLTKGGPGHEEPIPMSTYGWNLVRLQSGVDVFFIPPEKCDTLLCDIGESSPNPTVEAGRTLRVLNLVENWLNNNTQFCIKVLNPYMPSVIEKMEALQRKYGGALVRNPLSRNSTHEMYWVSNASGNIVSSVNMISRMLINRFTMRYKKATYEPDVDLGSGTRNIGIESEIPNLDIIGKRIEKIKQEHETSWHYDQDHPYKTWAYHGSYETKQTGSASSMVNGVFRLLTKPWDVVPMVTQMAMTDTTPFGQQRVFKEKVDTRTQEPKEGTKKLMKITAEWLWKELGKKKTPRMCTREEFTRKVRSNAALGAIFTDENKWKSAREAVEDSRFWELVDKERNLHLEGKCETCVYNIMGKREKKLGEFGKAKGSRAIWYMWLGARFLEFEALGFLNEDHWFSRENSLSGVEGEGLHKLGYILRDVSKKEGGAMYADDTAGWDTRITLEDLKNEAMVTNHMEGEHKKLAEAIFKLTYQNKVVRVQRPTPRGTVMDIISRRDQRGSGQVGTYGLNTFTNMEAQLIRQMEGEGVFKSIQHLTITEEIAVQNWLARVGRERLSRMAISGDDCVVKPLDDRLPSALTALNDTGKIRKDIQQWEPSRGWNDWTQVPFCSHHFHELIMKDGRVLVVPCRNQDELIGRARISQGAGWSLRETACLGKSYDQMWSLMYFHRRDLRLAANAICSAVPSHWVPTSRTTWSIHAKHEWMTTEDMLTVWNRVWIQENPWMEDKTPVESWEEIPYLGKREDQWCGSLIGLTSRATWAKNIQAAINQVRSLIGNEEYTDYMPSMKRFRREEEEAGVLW

SMILES: O=C(N/N=C/c1ccc(O)cc1O)c1ccncc1
- IC50 [1]: 5.88 µM (active)

SMILES: O=C(N/N=C/c1ccccc1O)c1ccncc1 [SALINAZID]
- IC50 [1]: 7.54 µM (active)

SMILES: Cc1ccc(C)c(OCc2ccc(C(=O)NN)o2)c1
- IC50 [2]: > 80 µM (inactive)

SMILES: CCCCOc1ccc(Nc2cc(Cl)ccc2C(=O)O)cn1
- IC50 [3]: 59.8 µM (active)
- EC50 [4]: 10.6 µM (active)

SMILES: CCOC(=O)c1c(C)n(CC(O)CN(C)C)c2cc(Br)c(OC)cc12 (configuration not stated)
- EC50 [5]: > 60 µM (not active)
- AC50 [6]: 10.1 µM (active)
- EC50 [7]: 0.685 µM (active)

SMILES: Oc1cc(O)cc(-c2cc3ccc(O)cc3o2)c1 [MORACIN M]
- IC50 [2]: > 80 µM (inactive)
- IC50 [8]: 23 µM (active)

SMILES: C/C(CC(=O)N(C(C)C)C(C)C)=N\NC(=O)COc1ccc(Cl)cc1Cl
- EC50 [4]: 13.3 µM (active)

SMILES: O=C(C[N+]1(CC#Cc2ccccc2)CCCCC1)c1ccc(Cl)cc1
- EC50 [4]: 7.5 µM (active)

SMILES: O=C(CSc1[nH]cnc2nncc1-2)Nc1nc(-c2ccc(F)c(F)c2)cs1
- AC50 [9]: 46.1 µM (active)
- AC50 [10]: > 52 µM (inactive)
- AC50 [11]: > 52 µM (inactive)

SMILES: Oc1cc(-c2ccccc2)nc2cc(-c3ccc(Br)cc3)nn12
- IC50 [12]: 5.12 µM (inactive)
- IC50 [13]: > 20 µM (inactive)
- IC50 [14]: 16.9 µM (active)
- EC50 [15]: 10.8 µM (active)

SMILES: COc1cccc(/C=C/c2ccc3ccccc3n2)c1OC(C)=O
- AC50 [9]: 25.3 µM (active)
- AC50 [16]: 6.67 µM (active)
- AC50 [10]: 30.1 µM (active)
- AC50 [11]: 33.3 µM (active)
- AC50 [17]: 1.87 µM (active)
- AC50 [18]: 2.77 µM (active)
- AC50 [19]: 2.59 µM (active)

SMILES: CCn1c(=O)cc(OCC(=O)NCc2ccc(C)o2)c2ccccc21
- IC50 [2]: > 80 µM (inactive)
